According to patent US9765039B2, “Biaryl derivatives as bromodomain inhibitors” (Zenith Epigenetics Ltd., priority 2012, dated 2017):

Columns and labels:
[1] = system: Human AML MV-4-11 cells; test: Inhibition of cell proliferation in cancer cell lines (CellTiter Aqueous One); format: cell-based; set-up: key: Active: Compounds with an IC50 value less than 30 μM were deemed to be active.; Not Active: Compounds with an IC50 value less than 30 μM were deemed to be active; conditions: 72 hours
Outline: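 Exponentially growing MV-4-11 cells were treated immediately with two-fold compound dilutions from 30 µM to 0.2 µM in triplicate for 72 h at 37 °C. Viability was read by MTS (CellTiter Aqueous One) absorbance at 490 nm after 3-4 h; % proliferation vs DMSO gave IC50.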

[2] = system: hApoA-1 mRNA; test: Up-regulation of hApoA-1 mRNA transcription in Huh7 cells; format: cell-based, human; set-up: key: Active: Compounds with an EC170 value less than 30 μM are deemed to be active.; Not Active: Compounds with an EC170 value less than 30 μM are deemed to be active; conditions: 48 hrs treatment, ApoA-I mRNA
Outline: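 Huh7 cells plated 24 h before compound, then treated 48 h; mRNA isolated from lysates and ApoA-I quantified by one-step real-time PCR. Fold induction derived from Ct values relative to the matching DMSO control; EC170 reported as activity measure.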

[3] = system: IL-6; test: In vivo efficacy in mouse endotoxemia model (IL-6); conditions: C57/B16 mice; orally at 75 mg/kg; 4 hour challenge with LPS 0.5 mg/kg intraperitoneally
Experimental: Sub lethal doses of Endotoxin (E. coli bacterial lipopolysaccharide) were administered to animals to produce a generalized inflammatory response which was monitored by increases in secreted cytokines. Compounds were administered to C57/B16 mice orally at 75 mg/kg dose to evaluate inhibition in IL-6 and IL-17 cytokines post 4 hour challenge with Lipopolysaccharide (LPS) at 0.5 mg/kg dose intraperitoneally.

[4] = system: c-myc; test: Inhibition of c-myc expression in cancer cell lines (mRNA, real-time PCR); format: cell-based; set-up: key: Active: Compounds with an IC50 value less than 30 μM were deemed to be active; conditions: Human AML MV4-11 cells, 3 hours
Outline: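 MV4-11 cells (2.5×10^4) exposed to compound or 0.1% DMSO for 3 h at 37° C, then lysed for mRNA isolation. c-myc and cyclophilin cDNAs co-amplified by duplex RT real-time PCR. IC50 from dose-response curve.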

[5] = biological target: T1, Brd4 bromodomain 1 (Homo sapiens, UniProt O60885); test: Inhibition of tetra-acetylated histone H4 binding to BET bromodomains (TR-FRET); set-up: key: Active: Compounds with an IC50 value less than 30 μM were deemed to be active.; Not Active: Compounds with an IC50 value less than 30 μM were deemed to be active; conditions: first bromodomain of Brd4, tetra-acetylated histone H4 peptide
T1 construct: made in house; host or cells: E. coli BL21(DE3)
Outline: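 TR-FRET with N-terminally His-tagged bromodomains (200 nM, E. coli-expressed, Ni affinity and SEC-purified) and biotinylated tetra-acetylated histone H4 peptide (25–50 nM), detected with Eu-cryptate streptavidin and XL665 anti-His antibody. Buffer 30 mM HEPES pH 7.4, 320 mM KF, 0.08% BSA, 0.2% DMSO; 2 h RT. IC50 from decrease in 665/620 nm ratio.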

[6] = system: hIL-6 mRNA; test: Inhibition of hIL-6 mRNA transcription in LPS-stimulated U937 macrophages; format: cell-based, human; set-up: key: Active: Compounds with an IC50 value less than 30 μM are deemed to be active; conditions: U937 differentiated into macrophages, 1 h pretreatment, lipopolysaccharide 3 h
Outline: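 U937 cells differentiated 3 days with 60 ng/mL PMA, pretreated 1 h with compound, then stimulated with […] E. coli LPS for 3 h at 37° C. hIL-6 mRNA quantified by one-step real-time RT-PCR, Ct normalised to internal control and expressed as fold induction relative to control.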

[7] = system: arthritic rats; test: In vivo efficacy in rat collagen induced arthritis; set-up: species or system female Lewis strain of rats; conditions: collagen Day 1 and 7, dosed Day 11 to Day 17
Experimental: Rat collagen-induced arthritis is an experimental model of polyarthritis that has been widely used for preclinical testing of numerous anti-arthritic agents. Following administration of collagen, this model establishes a measurable polyarticular inflammation, marked cartilage destruction in association with pannus formation and mild to moderate bone resorption and periosteal bone proliferation. In this model, collagen was administered to female Lewis strain of rats on Day 1 and 7 of study and dosed with compounds from Day 11 to Day 17. Compounds were evaluated to assess the potential to inhibit the inflammation (including paw swelling), cartilage destruction and bone resorption in arthritic rats, using a model in which the treatment is administered after the disease has been established.

cell proliferation activity (IC50 < 30 μM) [1] | c-myc activity (IC50 < 30 μM) [4] | FRET activity (IC50 < 30 μM) [5] | IL-6 activity (IC50 < 30 μM) [6] | melting point | SMILES | ApoA-1 Activity (EC170 < 30 μM) [2] | In vivo Activity (IL-6) [3] | In vivo Activity [7]
Active | Active | Active | Active |  | COc1cc(OC)c2c(=O)[nH]c(-c3ccc(OCCNC(C)C)c(-c4ccc(S(C)(=O)=O)cc4)n3)nc2c1 [Example 27, 2-(5-(2-(Isopropylamino)ethoxy)-6-(4-(methylsulfonyl)phenyl)pyridin-2-yl)-5,7-dimethoxyquinazolin-4(3H)-one] | Active | Active | 
Active | Active | Active | Active | 266 to 267 °C | COc1cc(OC)c2c(=O)[nH]c(-c3ccc(OC)c(-c4ccc([S+](C)[O-])cc4)n3)nc2c1 (stereo not shown) [Example 50, 5,7-Dimethoxy-2-(5-methoxy-6-(4-(methylsulfinyl)phenyl)pyridin-2-yl)quinazolin-4(3H)-one] | Active |  | Active
